Laboratory results as given in paper PMC11676817, “Antiproliferative and Morphological Analysis Triggered by Drugs Contained in the Medicines for Malaria Venture COVID-Box Against Toxoplasma gondii Tachyzoites” (Microorganisms, 2024).
Like-named read-outs stand apart in the source and are kept apart here.

Legend:
[1] = cited from earlier work
T. gondii tachyzoites [2] = experiment: Transmission electron microscopy of treated tachyzoites; type: cell-based, Toxoplasma gondii
Description: NHDF cultures infected with T. gondii were treated with compounds and fixed with 2.5% glutaraldehyde (EM Grade—Ted Pella Inc., Redding, CA, USA) in 0.1 M sodium cacodylate buffer pH 7.4 (Ted Pella Inc.). Cells were post-fixed with 1% osmium tetroxide, 1.25% potassium ferrocyanide, and 5 mM CaCl2, in 0.1 M sodium cacodylate buffer (pH 7.4). The sample fixation and processing for microscopy were performed as previously described. Samples were dehydrated in alcohol solutions of increasing concentrations (35–100%) and embedded in epoxy resin (Polybed 812, Polysciences). Ultrathin sections were collected in copper grids 300 mesh (Ted Pella Inc.), stained with uranyl acetate and lead citrate, and then observed in a Fei TecNai G2 120 kV Spirit Electron Microscope (FEI Company, Eindhoven, The Netherlands).

[3] = tested on: Toxoplasma gondii tachyzoites of the RH strain; experiment: microbe, parasite or virus in culture; type: cell-based; settings: for activity at 0.5 µM: 500 nM; for activity at 1 µM: 1000 nM; for activity at […]: 250 nM
[4] = Rat, cited from earlier work; for Cmax: read-out: Plasma concentration (Cmax)
[5] = tested on: Toxoplasma gondii tachyzoites of the RH strain; settings: 7 days of treatment
[6] = Rat; ref Table S3 supplementary ref 3; cited from earlier work
T. gondii tachyzoites [7] = experiment: Immunofluorescence microscopy of treated tachyzoites (aberrant cell division, rhoptry morphology); settings: 24 h; for PVs with parasites with aberrant division: IMC1 and DAPI labeling; for Effect on tachyzoite morphology and cell division (fluorescence microscopy): 125 nM; for Vacuoles with aberrant parasites: […] (250 nM)
Description: Rabbit anti-IMC1 (1:1000) and anti-ARO (1:1000) (kindly provided by Dr. Dominique Soldati, Universite de Geneve, Switzerland) were used to label the mother cell and daughter cell pellicles throughout the endodyogeny process and rhoptries, respectively. Mouse anti-SAG1 (1:200; kindly donated by Dr. Tiago Mineo, Universidade Federal de Uberlândia) was used to label the parasite plasma membrane. DAPI (2 µg/mL; Sigma-Aldrich, St. Louis, MO, USA) was used to label the DNA. […] After labeling with antibodies, the coverslips were mounted onto slides using Prolong gold (Life Technologies), and samples were examined on a Zeiss Axio Observer Z1 microscope (Baden-Württemberg, Germany) or Olympus BX60 microscope (Shinjuku City, Tokyo, Japan).

T. gondii tachyzoites [8] = settings: cited from earlier work
[9] = cited from earlier work; remark: listed apart in the source
[10] = design: method as in Table S3 supplementary ref 2; settings: Mouse and Rat; ref Table S3 supplementary ref 2; cited from earlier work
[11] = tested on: Toxoplasma gondii tachyzoites of the RH strain; experiment: microbe, parasite or virus in culture; settings: 168 h
[12] = cited from earlier work; remark: listed apart in the source
in vitro = settings: human
[13] = cited from earlier work; remark: listed apart in the source
[14] = in vivo; cited from earlier work
[15] = Cytotoxicity assay in NHDF cells (MTS); settings: human
[16] = estimated; ref [66]; cited from earlier work
[17] = design: method as in Table S3 supplementary ref 30; settings: Rat and Monkey; ref Table S3 supplementary ref 30; cited from earlier work
[18] = published in vivo studies, ref Table S3
[19] = read-out: IC50 (μM) in Tachyzoites, RH strain in NHDF cells, plaque assay
[20] = read-out: IC50 against T. gondii proliferation, RH strain
[21] = Human, ref Table S3 supplementary refs 1, 4, 8, 11, 13, 15, 17, 18, 19, 23, 31
[22] = read-out: Plasma concentration (Cmax), Human, ref Table S3 supplementary refs 1, 4, 8, 11, 13, 15, 17, 18, 19, 23
[23] = read-out: IC50 against T. gondii proliferation, RH strain, 7 days of treatment
[24] = NHDF, read-out: IC50 (μM) in Tachyzoites, RH strain in NHDF cells, plaque assay, 7 days of treatment
[25] = Toxoplasma gondii, 24 h of treatment, read-out: Proliferation index (%)
[26] = Toxoplasma gondii, 31.2 nM, 24 h of treatment, read-out: Proliferation index (%)
[27] = Toxoplasma gondii, 62.5 nM, 24 h of treatment, read-out: Proliferation index (%)
[28] = ref Table S3 supplementary refs 28, 32
[29] = ref Table S3 supplementary refs 3, 10, 12, 28, 32
[30] = Mice/Mouse, ref Table S3 supplementary refs 6, 16, 24, 27, 33

COc1ccc(C[C@H]2NC[C@H](O)[C@H]2OC(C)=O)cc1 [(-)-Anisomycin]
Brain availability [1, 18]: confirmed
Effect on T. gondii ultrastructure (TEM) (T. gondii tachyzoites [2]; 100 nM, 48 h): alteration of the ER architecture
Proliferation index (%) ([3]; 62.5 nM, 24 h of treatment): 60.56%
Proliferation index (%) ([3]; 125 nM, 24 h of treatment): 22.63%
Plasma concentration (Cmax) ([4]; ref Table S3 supplementary refs 3, 10, 12, 21): 2.75 ng/mL
IC50 [5, 19]: 0.02 µM
IC50 [5, 20]: ≤ 0.03 µM
Does it cross the blood-brain barrier or is found in the brain? [6]: Yes
PVs with parasites with aberrant division (T. gondii tachyzoites [7]; 62.5 nM): 22.5%
Effect on tachyzoite morphology and cell division (fluorescence microscopy) (T. gondii tachyzoites [7]): complete arrestment of cell division
IC50 (T. gondii tachyzoites [8]; 48 h of treatment, ref Fichera, Bhopale, and Ross (1995) [43], read-out: IC50 against T. gondii): 10 nM

CCN1CCN(Cc2ccc(Nc3ncc(F)c(-c4cc(F)c5nc(C)n(C(C)C)c5c4)n3)nc2)CC1 [Abemaciclib]
Brain availability [1, 18]: confirmed
Plasma concentration (Cmax) [9, 21]: 492 ng/mL
Cmax [9, 22]: 971 nM
Does it cross the blood-brain barrier or is found in the brain? [10]: Yes
IC50 [11, 23]: < 0.1 µM
IC50 [11, 24]: 0.09 ± 0.01 µM

Cc1cccc(/C=N/Nc2cc(N3CCOCC3)nc(OCCc3ccccn3)n2)c1 [Apilimod]
Brain availability ([1]; in vivo): confirmed
Cmax ([12]; mouse, in vivo): 2530 nM
Inhibition of parasite proliferation, in words ([3]; 0.5–1 µM, 24 h): modest inhibition
activity at 0.5 µM [3, 25]: 99.7%
activity at 1 µM [3, 25]: 73.2%
CC50 at 7 days (in vitro): 2120 ± 120 nM
selectivity ratio at 7 days (in vitro): 10
IC50 [11, 24]: 0.22 ± 0.06 µM
Does it cross the blood-brain barrier or is found in the brain? ([13]; mouse, in vivo): Yes

Nc1nc(Nc2ccc3c(c2)CC[C@@H](N2CCCC2)CC3)nn1-c1cc2c(nn1)-c1ccccc1CCC2 [Bemcentinib]
Brain availability ([1]; in vivo): confirmed
Does it cross the blood-brain barrier or is found in the brain? [14]: Yes
CC50 at 7 days (in vitro): 970 ± 150 nM
selectivity ratio at 7 days (in vitro): 6
Cmax ([9]; human, in vivo): 105 nM
Plasma concentration (Cmax) ([9]; human, in vivo): 53 ng/mL
IC50 [11, 24]: 0.15 ± 0.03 µM

CC(C)C[C@H](NC(=O)[C@H](Cc1ccccc1)NC(=O)c1cnccn1)B(O)O [Bortezomib]
Effect on T. gondii ultrastructure (TEM) (T. gondii tachyzoites [2]; 62.5 nM, 48 h): affected the parasite cell division
inhibition at 0.0312 µM ([3]; Toxoplasma gondii, 31.2 nM, 24 h, read-out: Inhibition of parasite proliferation): 75 to 80%
activity at 0.0312 µM [3, 26]: 20.9%
inhibition at 0.0625 µM ([3]; Toxoplasma gondii, 62.5 nM, 24 h, read-out: Inhibition of parasite proliferation): > 90%
activity at 0.0625 µM [3, 27]: 9.23%
selectivity ratio at 7 days (in vitro): 24
IC50 [5, 19]: 0.03 µM
IC50 [5, 20]: < 0.03 µM
CC50 at 7 days [15]: 720 ± 240 nM
Cmax ([9]; human, in vivo): 148 nM
Plasma concentration (Cmax) ([9]; human, in vivo): 56.7 ng/mL
PVs with parasites with aberrant division (T. gondii tachyzoites [7]; 31.2 nM): 23.6%
PVs with parasites with aberrant division (T. gondii tachyzoites [7]; 62.5 nM): 48.0%
IC50 [11, 23]: ≤ 0.03 µM
EC50 (T. gondii tachyzoites [8]; 72 h of treatment, ref Cajazeiro et al. (2022) [24], read-out: EC50 against T. gondii): 220 nM
IC50 (T. gondii tachyzoites [8]; 72 h of treatment, ref [34], read-out: IC50 in tachyzoites of T. gondii): 100 nM

CO[C@@H]1[C@H](N(C)C(=O)c2ccccc2)C[C@H]2O[C@]1(C)n1c3ccccc3c3c4c(c5c6ccccc6n2c5c31)C(=O)NC4 [Midostaurin]
Oral bioavailability [16]: > 90%
Effect on T. gondii ultrastructure (TEM) (T. gondii tachyzoites [2]; 250 µM as printed, 48 h): drastic effects on the parasite ultrastructure
activity at […] [3, 25]: 23.1%
activity at 0.5 µM [3, 25]: 24.3%
activity at 1 µM [3, 25]: 24.9%
CC50 at 7 days [15]: 240 ± 20 nM
Plasma concentration (Cmax) [9, 21]: 1210 ng/mL
Cmax [9, 22]: 2120 nM
Vacuoles with aberrant parasites (T. gondii tachyzoites [7]): more than 80%
Vacuoles with aberrant parasites (T. gondii tachyzoites [7]; listed as midostaurin): around 80%
IC50 [11, 24]: 0.08 µM

CNC(=O)c1cc(Oc2ccc(NC(=O)Nc3ccc(Cl)c(C(F)(F)F)c3)c(F)c2)ccn1 [Regorafenib]
Brain availability ([1]; in vivo): confirmed
Does it cross the blood-brain barrier or is found in the brain? [14]: Yes
CC50 at 7 days (in vitro): 3030 ± 10 nM
selectivity ratio at 7 days (in vitro): 12
Cmax ([9]; human, in vivo): 3900 nM
Plasma concentration (Cmax) ([9]; human, in vivo): 1900 ng/mL
IC50 [11, 24]: 0.25 ± 0.04 µM

CC[C@@H](C(=O)[C@@H](C)[C@@H](O)[C@H](C)[C@@H]1O[C@@H]([C@@H](CC)C(=O)O)CC[C@@H]1C)[C@H]1O[C@]2(C=C[C@@H](O)[C@]3(CC[C@@](C)([C@H]4CC[C@](O)(CC)[C@H](C)O4)O3)O2)[C@H](C)C[C@@H]1C [Salinomycin]
Brain availability [1, 18]: confirmed
Plasma concentration (Cmax) ([12]; Mice, ref Table S3 supplementary ref 27): 13.2 ng/mL
Cmax ([12]; read-out: Plasma concentration (Cmax), Mouse/Mice, ref Table S3 supplementary refs 16, 27): 17.6 nM
Effect on T. gondii ultrastructure (TEM) (T. gondii tachyzoites [2]; 125 and […] nM, 24 h): extensive vacuolization process
activity at 0.0312 µM [3, 26]: 79.1%
activity at 0.0625 µM [3, 27]: 21.9%
activity at 0.125 µM ([3]; Toxoplasma gondii, 125 nM, 24 h of treatment, read-out: Proliferation index (%)): 14.4%
inhibition at […] ([3]; Toxoplasma gondii, […] nM ([…] µM), 24 h, read-out: Inhibition of parasite proliferation): > 90%
activity at […] [3, 25]: 6.38%
Plasma concentration (Cmax) [4, 28]: 40 ng/mL
Cmax [4, 29]: 53.3 nM
CC50 at 7 days (in vitro): 1140 ± 170 nM
selectivity ratio at 7 days (in vitro): 16
Effect on tachyzoite morphology and cell division (fluorescence microscopy) (T. gondii tachyzoites [7]): vacuoles containing fragmented parasites
IC50 [11, 23]: < 0.1 µM
IC50 [11, 24]: 0.07 ± 0.01 µM
Does it cross the blood-brain barrier or is found in the brain? [13, 30]: Yes

CNC(=O)c1cc(Oc2ccc(NC(=O)Nc3ccc(Cl)c(C(F)(F)F)c3)cc2)ccn1 [Sorafenib]
Brain availability [1, 18]: confirmed
Plasma concentration (Cmax) ([4]; ref Table S3 supplementary ref 29): 2410 ng/mL
Cmax ([4]; ref Table S3 supplementary refs 21, 29): 5200 nM
Plasma concentration (Cmax) [9, 21]: 1001.3 ng/mL
Cmax ([9]; read-out: Plasma concentration (Cmax), Human, ref Table S3 supplementary refs 20, 22, 25, 31): 2200 nM
Does it cross the blood-brain barrier or is found in the brain? [17]: Yes
IC50 [11, 24]: 0.56 ± 0.03 µM

COc1ccc2cc1Oc1ccc(cc1)C[C@H]1c3cc(c(OC)cc3CCN1C)Oc1c(OC)c(OC)cc3c1[C@H](C2)N(C)CC3 [Tetrandrine]
Brain availability [1, 18]: confirmed
Plasma concentration (Cmax) [4, 28]: 237.10 ng/mL
Cmax [4, 29]: 381 nM
CC50 at 7 days (in vitro): 4770 ± 8250 nM
selectivity ratio at 7 days (in vitro): 14
IC50 [11, 24]: 0.35 ± 0.07 µM
Does it cross the blood-brain barrier or is found in the brain? [13, 30]: Yes
